The source of these data is paper PMC2776349, “Asymmetric Deactivation of HIV-1 gp41 following Fusion Inhibitor Binding” (PLoS Pathogens, 2009).

The subject of one assay is HIV-1HXB2 (gp41). Particulars: 1HXB2 (gp41, 48 h).
In the next assay the test system is HIV-1. The conditions noted are these: compared with wild type C37; ref KMK and MJR, manuscript in preparation; cited from earlier work.
In assay [1] the test system is EnvG547D/I548T and EnvV549E. The assay is classed as cell-based. The conditions noted are these: versus wild type Env.
The next assay deals with HIV-1HXB2. It counts as cell-based. The conditions noted are these: low (HOS-CD4-CCR5) versus high (HOS-CD4-CXCR4) CXCR4, HIV-1HXB2.
For assay [2], the target named is fluorescein-labeled 5-Helix (Human immunodeficiency virus type 1 group M subtype B, UniProt P04578, C598G/DEL582-596/DEL601-623/N624G). The assay is classed as binding, HIV-1HXB2.

Ends that are not written are not given here.

In turn, “GGHTTWMEWDREINKYTSLIHSLIEESQNQQEKNEQELLGHHHHHH [N637K (KYT)]” registered an IC50 in the assay on HIV-1HXB2 (gp41) of 1.65 ± 0.05 nM.

In the assay on HIV-1HXB2 (gp41), “GGHTTDMEWDREINNYTSLAHSLIEESQNQQEKNEQELLGHHHHHH [W628D/I642A]” had an IC50 of 65 ± 9.8 nM.

Turning to “GGHTTWMEWDREINNYTSLIHSLIEESQNQQEKNEQALLGHHHHHH [Variant E659A]”, 1.2 ± 0.13 nM corresponded to half-maximal inhibition with HIV-1HXB2 (gp41) (IC50).

In turn, “GGHTTWMEWDREINNYTSLIHSLIEESQNQQEKAEQELLGHHHHHH [Variant N656A]” yielded an IC50 in the assay with HIV-1HXB2 (gp41) of 30 ± 4.2 nM.

For “GGHTTDMEWDREANNYTSLIHSLIEESQNQQEKNEQELLGHHHHHH [W628D/I635A]”, the IC50 with HIV-1HXB2 (gp41) came to 97 ± 8.4 nM. This IC50 is about 3.2-fold higher than that of the sequence before.

The sequence “GGHTTWMEWDREINNYTSLIHSLIEESQNDQEKNEQELLGHHHHHH [Variant Q652D]” displayed an IC50 in the assay on HIV-1HXB2 (gp41) of 53 ± 0.98 nM. This IC50 lies about 1.8-fold lower than the previous one.

Turning to “GGHTTWMEWDREINNYTSLIHSDIEESQNQQEKNEQELLGHHHHHH [Variant L645D]”, half-maximal inhibition with HIV-1HXB2 (gp41) (IC50) required 630 ± 120 nM. Compared with the last sequence, the IC50 is about 12-fold higher.

As to “GGHTTWMEWDREINNYTSLDHSLIEESQNQQEKNEQELLGHHHHHH [Variant I642D]”, the IC50 in the assay on HIV-1HXB2 (gp41) came out at 13000 ± 2100 nM.

Turning to “GGHTTWMEWDREINNYISLIHSLIEESQNQQEKNEQELLGHHHHHH [T639I (NYI)]”, the IC50 in the assay on HIV-1HXB2 (gp41) worked out at 1.7 ± 0.1 nM.

Sequence “GGHTTWMEWDREINNYTSLIHSLIEEDQNQQEKNEQELLGHHHHHH [Variant S649D]” had an IC50 in the assay on HIV-1HXB2 (gp41) of 2300 ± 170 nM.

Sequence “GGHTTWMEWDREINNYTSLAHSLIEESQNQQEKNEQELLGHHHHHH [Variant I642A]” yielded an IC50 in the assay with HIV-1HXB2 (gp41) of 7 ± 1.5 nM. This IC50 lies about 330-fold lower than the previous one.

On to “GGHTTWMEWDREINKYISLIHSLIEESQNQQEKNEQELLGHHHHHH [N637K/T639I (KYI)]”, for which the resistance development result in the assay with HIV-1 was “takes much longer to achieve and requires more escape mutations than resistance to wild type C37”. Also, in assay [1], the “impact of G547D/I548T and V549E substitutions on potency” value was “minimal impact”. Also, the “increase in potency on lowering CXCR4 levels” value in the assay on HIV-1HXB2 is given as 3.5 fold. Moreover, in the assay on HIV-1HXB2 (gp41), the IC50 came out at 0.96 ± 0.1 nM. Further, the kon in assay [2] is 2.4±0.1 x10^7 M-1s-1. In assay [2] (C37 variants, reciprocal of koff), the “τoff (time constant for dissociation)” value was found to be 11000 min.

The sequence “GGHTTWMEWDREINNYTSLIHSLIEESQNQQEKDEQELLGHHHHHH [Variant N656D]” came in with an IC50 in the assay on HIV-1HXB2 (gp41) of 100 ± 8.9 nM.

In the assay on HIV-1HXB2 (gp41), “GGHTTWMEWDREANNYTSLIHSLIEESQNQQEKNEQELLGHHHHHH [Variant I635A]” came in with an IC50 of 5.7 ± 1.6 nM.

In the assay on HIV-1HXB2 (gp41), “GGHTTWMEWDREINNYTSLIHSLIEESQNAQEKNEQELLGHHHHHH [Variant Q652A]” came in with an IC50 of 3.5 ± 0.81 nM.

For the sequence “GGHTTWMEWDREDNNYTSLIHSLIEESQNQQEKNEQELLGHHHHHH [Variant I635D]”, the IC50 in the assay on HIV-1HXB2 (gp41) was 3100 ± 350 nM.

With “GGHTTWMEWDREINNYTSLIHSLIEEAQNQQEKNEQELLGHHHHHH [Variant S649A]”, the IC50 in the assay on HIV-1HXB2 (gp41) turned out to be 1.6 ± 0.41 nM. This IC50 lies about 1900-fold lower than the previous one.

With “GGHTTWMEWDREINNYTSLIHSAIEESQNQQEKNEQELLGHHHHHH [Variant L645A]”, in the assay with HIV-1HXB2 (gp41), inhibition was half-maximal at 3.9 ± 0.7 nM (IC50).

In general, IC50 refers to the concentration needed to halve the response being measured. The low end stands for inhibition by little substance, the high end for a need for much substance.
